Structures are written as SMILES.

This assay concerns TNF-α. Put plainly: Inhibition of TNF-α in lipopolysaccharide (LPS) stimulated human monocytic THP-1 cells. The assay is classed as cell-based. As to conditions: LPS (1 μg/mL) stimulated THP-1 cells, 4 hours incubation, human TNF-α by ELISA. The text has this:
In addition, Tumor Necrosis Factor, TNF-α, inhibition can be measured by utilizing lipopolysaccharide (LPS) stimulated human monocytic cells (THP-1) as described in: • i) K. M. Mohler et al., “Protection Against a Lethal Dose of Endotoxin by an Inhibitor of Tumour Necrosis Factor Processing”, Nature, 370, pp 218-220 (1994). • ii) U.S. Pat. No. 6,297,381 B1 Cirillo et al., issued Oct. 2, 2001, incorporated by reference and reproduced herein below in relevant portion thereof.
The inhibition of cytokine production can be observed by measuring inhibition of TNF-α in lipopolysaccharide stimulated THP-1 cells. All cells and reagents are diluted in RPMI 1640 with phenol red and L-glutamine, supplemented with additional L-glutamine (total: 4 mM), penicillin and streptomycin (50 units/mL each) and fetal bovine serum (FBS 3%) (GIBCO, all conc. Final). Assay is performed under sterile conditions, only test compound preparation is non-sterile. Initial stock solutions are made in DMSO followed by dilution into RPMI 1640 2-fold higher than the desired final assay concentration. Confluent THP-1 cells ([…], final conc.; American Type Culture Company, Rockville, Md.) are added to 96 well polypropylene round bottomed culture plates (Costar 3790; sterile) containing 125 μL test compound (2-fold concentrated) or DMSO vehicle (controls, blanks). DMSO concentration should not exceed 0.2% final. Cell mixture is allowed to preincubate for 15 minutes at 37° C., 5% CO2 prior to stimulation with lipopolysaccharide (LPS, 1 μg/mL final; Sigma L-2630, from E. coli serotype 0111.B4; stored as 1 mg/mL stock in endotoxin screened diluted H2O vehicle at −80° C.). Blanks (unstimulated) receive H2O vehicle; final incubation volume is 250 μL. Incubation (4 hours) proceeds as described above. Assay is to be terminated by centrifuging plates 5 minutes at room temperature, 1600 rpm ([…]); supernatants are then transferred to clean 96 well plates and stored at −80° C. until analyzed for human TNF-α by a commercially available ELISA kit (Biosource #KHC3015, Camarillo, Calif.). The calculated IC50 value is the concentration of the test compound that caused a 50% decrease in the maximal TNF-α production.
By IC50 is commonly meant the midpoint of a concentration-inhibition curve. Higher therefore signals a need for much substance. Compound `CCNC(=O)N(c1ccc(OCC)cc1)c1ccnc(N[C@@H](C)COC)n1` [1-(4-Ethoxyphenyl)-1-{2-[(1S)-2-methoxy-1-methyl-ethylamino]-pyrimidin-4-yl}-3-ethyl-urea] yielded an IC50 of 276 nM.

`CCNC(=O)N(c1ccc(F)cc1)c1ccnc(NC(C)C)n1` [1-(4-Fluorophenyl)-1-[2-(iso-propylamino)-pyrimidin-4-yl]-3-ethyl-urea] returned a concentration for half-maximal inhibition (IC50) of 28 nM.

Consider `CCNC(=O)N(c1ccc(F)cc1)c1ccnc(NC2CCOCC2)n1` [1-(4-Fluorophenyl)-1-[2-(tetrahydro-pyran-4-ylamino)-pyrimidin-4-yl]-3-ethyl-urea], for which the 50% inhibitory concentration (IC50) amounted to 86 nM.

As to `CCNC(=O)N(c1ccc(F)cc1)c1ccnc(N[C@@H](C)C(C)(C)O)n1` [1-(4-Fluorophenyl)-1-{2-[(1S)-2-hydroxy-1,2-dimethyl-propylamino]-pyrimidin-4-yl}-3-ethyl-urea], the IC50 worked out at 30 nM.

On to `CCNC(=O)N(c1ccc(OC)cc1)c1ccnc(N[C@@H](C)C(C)(C)O)n1` [1-(4-Methoxyphenyl)-1-{2-[(1S)-2-hydroxy-1,2-dimethyl-propylamino]-pyrimidin-4-yl}-3-ethyl-urea], for which the IC50 came out at 16 nM.

Take `CCCCNC(=O)N(c1ccc(OC)cc1)c1ccnc(N[C@@H](C)COC)n1` [1-(4-Methoxyphenyl)-1-{2-[(1S)-2-methoxy-1-methyl-ethylamino]-pyrimidin-4-yl}-3-butyl-urea]: the concentration for half-maximal inhibition (IC50) was 324 nM.

The compound `CCNC(=O)N(c1ccc(OC)cc1)c1ccnc(N[C@@H](C)COC)n1` [1-(4-Methoxyphenyl)-1-{2-[(1S)-2-methoxy-1-methyl-ethylamino]-pyrimidin-4-yl}-3-ethyl-urea] yielded a half-maximal inhibitory concentration (IC50) of 666 nM.

As to `CCNC(=O)N(c1ccc(SC)cc1)c1ccnc(N[C@@H](C)COC)n1` [1-(4-Methylsulfanylphenyl)-1-{2-[(1S)-2-methoxy-1-methyl-ethylamino]-pyrimidin-4-yl}-3-ethyl-urea], the half-maximal inhibitory concentration (IC50) was 26 nM.

For the origin of these results see patent US7449474B2, “Tri-substituted ureas as cytokine inhibitors” (The Procter & Gamble Company, priority 2004, dated 2008).
